Laboratory results from patent publication US20200383969A1, “RIMEGEPANT FOR CGRP RELATED DISORDERS” (Biohaven Pharmaceutical Holding Company Ltd., priority 2018, published 2020).

Experiment: Study 303 (BHV3000-303), Phase 3, rimegepant 75 mg ODT vs placebo, acute treatment of migraine
Type: in vivo, human
Excerpt: Clinical Trial—BHV3000-303: Phase 3: Double-Blind, Randomized, Placebo-Controlled, Safety and Efficacy Trial of BHV-3000 (Rimegepant) Orally Discintegrating Tablet (ODT) for the Acute Treatment of Migraine (ClinicalTrials.gov Identifier: NCT03461757) • Study Type: Interventional (Clinical Trial) • Actual Enrollment: 1812 participants • Allocation: Randomized • Intervention Model: Parallel Assignment • Masking: Triple (Participant, Care Provider, Investigator) • Primary Purpose: Treatment • Official Title: BHV3000-303: Phase 3, Double-Blind, Randomized, Placebo Controlled, Safety and Efficacy Trial of BHV-3000 (Rimegepant) Orally Disintegrating Tablet (ODT) for the Acute Treatment of Migraine • Actual Study Start Date: Feb. 27, 2018 • Actual Primary Completion Date: Oct. 8, 2018 • Actual Study Completion Date: Oct. 15, 2018 • 1. Pain freedom of rimegepant compared with placebo in the acute treatment of migraine will be measured using the number of evaluable subjects that report no pain at 2 hours post-dose. • Pain will be measured on a 4 point Likert scale (0=none, 1=mild, 2=moderate, 3=severe) • 2. Freedom from the most bothersome symptom (MBS) of rimegepant compared with placebo will be measured using the number of evaluable subjects that report the absence of their MBS at 2 hours post-dose. [Time Frame: Two Hours Post Dose] • The MBS (nausea, phonophobia or photophobia) will measured using a binary scale (0=absent, 1=present). • 1. […] [Time Frame: 2 Hours Post-Dose] • Pain Relief as measured by a 4 point numeric rating scale (None, Mild, Moderate, Severe) • 2. […] [ Time Frame: 2 hours-24 hours post-dose] • Sustained Pain Relief as measured by a 4 point numeric rating scale (None, Mild, Moderate, Severe) • 4. […] To measure rimegepant compared to placebo on the probability of requiring rescue medication will be assessed using the number of subjects that take rescue medication within […] administration of study medication (BHV3000 or placebo). […] Sustained ability to function at a normal level as measured by the Functional disability scale [Time Frame: 2 to 24 hours post dose] • Subjects self-report “normal” on the functional disability scale • 7. […] [Time Frame: 2 hours-48 hours post-dose] • Sustained Pain Relief as measured by a 4 point numeric rating scale (None, Mild, Moderate, Severe) • 8. […] Sustained ability to function at a normal level as measured by the Functional disability scale [Time Frame: 2 to 48 hours post dose] • Subjects self-report “normal” on the functional disability scale • 10. […] [Time Frame: 90 minutes post dose] • Pain Relief as measured by a 4 point numeric rating scale (None, Mild, Moderate, Severe) • 13. […] [Time Frame: 2 hours -24 hours post-dose] • Sustained Pain Freedom as measured by a 4 point numeric rating scale (None, Mild, Moderate, Severe) • 14. […]

N[C@@H]1c2cccnc2[C@H](OC(=O)N2CCC(n3c(=O)[nH]c4ncccc43)CC2)CC[C@H]1c1cccc(F)c1F [Rimegepant, [(5S,6S,9R)-5-amino-6-(2,3-difluorophenyl)-6,7,8,9-tetrahydro-5H-cyclohepta[b]pyridin-9-yl] 4-(2-oxo-3H-imidazo[4,5-b]pyridin-1-yl)piperidine-1-carboxylate]
LFTs>3×ULN, number of patients (Study 303): one
Clinical benefit through 48 hours (pain relief, pain freedom, MBS, functional disability) vs placebo (Study 303, single dose): Lasting clinical benefit
Safety and tolerability (Study 303 vs Studies 301 and 302): consistent with the profile previously observed
Highest incidence of any single adverse event (rimegepant group, Study 303 paragraph, sentence follows mention of pooled Table 9): ≤ 1.6%
